The conditions of data set [1]: Liquid.
A short description of data set [2]: excess molar enthalpy (molar enthalpy of mixing); xn = mol fraction of the nth substance listed. To be noted: 323.15 K, 4100 kPa, Liquid, Flow calorimetry.

Each structure is given as a SMILES string. Numbers after ± are expanded uncertainties.

By vapor or sublimation pressure is commonly meant the equilibrium pressure above the liquid or solid.

Take `OCCO` [1,2-ethanediol]: the “vapor or sublimation pressure” value is recorded as 0.22 ± 0.04 kPa in data set [1] (333.15 K) and 0.77 ± 0.05 kPa in data set [1] (353.15 K).
Consider `CC(=O)c1ccccc1` [acetophenone], for which the “vapor or sublimation pressure” value in data set [1] (323.27 K) is recorded as 0.34 ± 0.042 kPa.
Same read-out and setting: with `C=CC` [propene] the figure was 2058.9 ± 14 kPa.
With `C=CC` [propene] + CC(=O)c1ccccc1, the excess molar enthalpy in data set [2] (x1 = 0.0702) was found to be 0.054 ± 0.002 kJ/mol; in data set [2] (x1 = 0.1375), 0.105 ± 0.003 kJ/mol; in data set [2] (x1 = 0.202), 0.148 ± 0.003 kJ/mol; in data set [2] (x1 = 0.264), 0.188 ± 0.004 kJ/mol; in data set [2] (x1 = 0.3235), 0.213 ± 0.005 kJ/mol; in data set [2] (x1 = 0.4086), 0.24 ± 0.005 kJ/mol. The excess molar enthalpy in data set [2] (x1 = 0.4889) was 0.25 ± 0.006 kJ/mol; in data set [2] (x1 = 0.5893), 0.246 ± 0.006 kJ/mol; in data set [2] (x1 = 0.6828) it was 0.218 ± 0.005 kJ/mol; in data set [2] (x1 = 0.7487) it was 0.184 ± 0.004 kJ/mol; in data set [2] (x1 = 0.8115), 0.142 ± 0.003 kJ/mol; in data set [2] (x1 = 0.8516) it was 0.113 ± 0.003 kJ/mol. In addition, the excess molar enthalpy in data set [2] (x1 = 0.8905) was determined as 0.082 ± 0.002 kJ/mol; in data set [2] (x1 = 0.9281), 0.052 ± 0.002 kJ/mol; in data set [2] (x1 = 0.9646) it was 0.025 ± 0.001 kJ/mol.
For `O` [water], the “vapor or sublimation pressure” value is 19.93 ± 0.17 kPa in data set [1] (333.15 K) and 47.44 ± 0.35 kPa in data set [1] (353.15 K).
